# According to US11014896B2, “TRPA1 and TRPV4 inhibitors and methods of using the same for organ-specific inflammation and itch” (Duke University, priority 2014, dated 2021):
# “Also recorded” adds a separate entry of the source.
# Key:
# human TRPV1 = molecular target: T1, human TRPV1 (Homo sapiens, UniProt Q8NER1); experiment: Ca2+ signal in N2a cells transfected with human TRPV1; type: cell-based; conditions: stimulation with 5 μM capsaicin
# T1 construct: expressed in transfected cells; host or cells: N2a cells
# T1 sequence (Q8NER1 whole entry): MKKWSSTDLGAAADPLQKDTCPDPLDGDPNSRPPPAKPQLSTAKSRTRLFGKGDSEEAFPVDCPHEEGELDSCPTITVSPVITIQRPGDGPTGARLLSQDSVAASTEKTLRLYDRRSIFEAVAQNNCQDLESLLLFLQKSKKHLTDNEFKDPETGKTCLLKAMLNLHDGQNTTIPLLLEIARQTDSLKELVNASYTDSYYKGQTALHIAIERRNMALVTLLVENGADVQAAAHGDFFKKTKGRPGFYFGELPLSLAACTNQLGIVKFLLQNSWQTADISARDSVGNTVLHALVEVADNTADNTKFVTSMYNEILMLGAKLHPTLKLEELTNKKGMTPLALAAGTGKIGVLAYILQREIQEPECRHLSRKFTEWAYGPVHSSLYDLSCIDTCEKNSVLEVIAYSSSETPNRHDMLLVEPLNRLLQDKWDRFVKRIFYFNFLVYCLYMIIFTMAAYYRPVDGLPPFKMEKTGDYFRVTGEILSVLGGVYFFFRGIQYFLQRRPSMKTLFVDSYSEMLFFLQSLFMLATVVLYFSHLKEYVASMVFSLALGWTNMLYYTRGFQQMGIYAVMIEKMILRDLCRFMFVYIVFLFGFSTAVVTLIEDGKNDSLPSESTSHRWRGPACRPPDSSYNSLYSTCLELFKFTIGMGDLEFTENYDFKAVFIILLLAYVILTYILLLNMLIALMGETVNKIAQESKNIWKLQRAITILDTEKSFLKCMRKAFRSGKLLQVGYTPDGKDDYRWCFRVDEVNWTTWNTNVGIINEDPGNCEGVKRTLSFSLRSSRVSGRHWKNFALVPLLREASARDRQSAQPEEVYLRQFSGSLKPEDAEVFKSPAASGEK
# Experimental: (§1) Compounds were tested for their effect on TRPV1, TRPV2, and TRPV3. Methods were similar to those described in Example 15. Briefly, N2a cells were transfected with human TRPV1, TRPV2, or TRPV3. eGFP-transfection was used as control. For specific stimulation of TRPV1, 5 μM capsaicin was used. For stimulation of TRPV2, hypotonicity (260 mosmol/L) was used, based on previous reports of TRPV2 being osmotically responsive. N2a cells were not responsive to hypotonicity, and neither were control-transfected cells. For TRPV3-expressing cells, camphor (20% of a commercially available stock solution) was used. […] Stimulation and control protocols were applied as for TRPA1-expressing N2a cells as detailed above in Example 15.
# human TRPV2 = molecular target: T2, human TRPV2 (Homo sapiens, UniProt Q9Y5S1); experiment: Ca2+ signal in N2a cells transfected with human TRPV2; type: cell-based; conditions: stimulation with hypotonicity (260 mosmol/L)
# T2 construct: expressed in transfected cells; host or cells: N2a cells
# T2 sequence (Q9Y5S1 1-764): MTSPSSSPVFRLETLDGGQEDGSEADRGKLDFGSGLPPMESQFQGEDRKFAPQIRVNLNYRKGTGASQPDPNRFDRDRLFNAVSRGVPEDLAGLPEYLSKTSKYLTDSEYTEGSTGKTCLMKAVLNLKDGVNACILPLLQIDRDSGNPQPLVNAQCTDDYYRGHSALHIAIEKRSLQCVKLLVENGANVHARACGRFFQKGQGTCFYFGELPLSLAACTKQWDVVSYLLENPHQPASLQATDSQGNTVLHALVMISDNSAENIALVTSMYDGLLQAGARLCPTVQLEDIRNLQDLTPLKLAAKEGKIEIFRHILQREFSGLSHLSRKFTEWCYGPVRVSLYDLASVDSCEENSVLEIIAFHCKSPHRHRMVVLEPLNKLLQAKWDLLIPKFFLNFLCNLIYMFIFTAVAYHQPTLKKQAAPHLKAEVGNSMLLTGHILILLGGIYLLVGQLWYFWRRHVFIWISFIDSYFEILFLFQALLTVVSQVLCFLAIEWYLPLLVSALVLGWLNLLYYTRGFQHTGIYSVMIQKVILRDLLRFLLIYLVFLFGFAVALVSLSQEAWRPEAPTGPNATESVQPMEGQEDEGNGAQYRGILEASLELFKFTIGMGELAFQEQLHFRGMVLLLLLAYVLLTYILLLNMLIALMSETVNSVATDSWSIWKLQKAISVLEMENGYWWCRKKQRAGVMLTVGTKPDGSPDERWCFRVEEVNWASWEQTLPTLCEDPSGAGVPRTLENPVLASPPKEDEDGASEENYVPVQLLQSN
# Experimental: as §1
# ET1 [1] = experiment: ET1 secretion by non-stimulated 1° MK (ELISA); type: cell-based, mouse
# ET1 [2] = experiment: ET1 expression by UVB-exposed 1° MK (immunocytochemistry); type: cell-based, mouse; conditions: cells preincubated with inhibitor
# Experimental: 1° MK were exposed to UVB using the UV optical system (295 nm LED). 24 hours later the cells were fixed and fluorescently immunolabeled for ET1. Digital images were captured and subjected to morphometry.
# Mouse keratinocytes were cultured on collagen coated quartz coverslips and then stimulated from the bottom using the previously mentioned UV optical system using the 295 nm LED. 24 hours later the cells were fixed in 4% formaldehyde in PBS for 20 minutes, permeabilized with 0.1% Triton X-100 in PBS for 10 minutes, washed, then blocked in 10% normal goat serum in PBS for 45 minutes. Coverslips were incubated overnight with primary antibody mouse anti-ET1 (1:200; Abcam), washed three times in PBS and incubated with secondary antibody for 2 hours at 25° C. Coverslips were washed three times in PBS, once with double-distilled H2O. Digital images were captured using a 40× immersion lens on the BX61 Olympus upright microscope. Morphometric analysis was conducted using ImageJ freeware with tailored regions-of-interest.
# [3] = UVB-induced nocifensive behavior after topical GSK205 (Hargreaves' test, von Frey hair); type: in vivo, mouse
# Experimental: Behavioral tests were performed to evaluate the decrease in withdrawal thresholds in response to mechanical von Frey hair or thermal stimuli applied to hind paws. […]. These withdrawal thresholds were ascertained before and after UV exposure. Mice were exposed using a Bio Rad Gel Doc 2000 UV transilluminator (302 nm) for 5 minutes with an exposure of 600 mJ/cm^2, 3-5 days after the last application of tamoxifen/oil.
# GSK205 topical treatment: A viscous solution of 68% EtOH/5% glycerol plus 1 mM or 5 mM GSK205 (none for control) was applied to hindpaws by rubbing in 20 μL, applied at time-points 1 hour and again 10 min before UV exposure.
# Behavioral tests were performed to evaluate the decrease in withdrawal thresholds in response to mechanical or thermal stimuli applied to hind paws. These withdrawal thresholds were ascertained before and after UVB exposure. Mice were confined by plexi-glass enclosures on top of 25×26 cm Bio Rad Gel Doc 2000 UV transilluminator (302 nm), and otherwise allowed to openly explore this environment. UV-exposure lasted for 5 minutes with an exposure of 600 mJ/cm^2.
# Hindpaw mechanical withdrawal thresholds were determined by the automated von Frey hair method, using a 0.5 mm diameter stainless steel filament, part of an automated plantar touch stimulator (Ugo Basile, Modena, Italy). Relevant detail included pre-test acclimatization in a quiet room for 30 min, conducting the test at the same time of day and blinded observers. The stimulus was delivered to the hindpaw, automatically discontinued upon withdrawal, and its intensity recorded automatically. 6-8 trials per animal were conducted, with equal exposure of both hindpaws, leading to an average withdrawal threshold. Results are reported as […], which was calculated by subtracting post-treatment from pre-treatment measurements, expressed as % or relative to 1.0.
# Hindpaw thermal (hot) withdrawal thresholds were determined by the well-established Hargreaves' method, using an infra-red thermal stimulation device that delivers the stimulus from underneath the hindpaw combined with automatic shut-off upon withdrawal (Ugo Basile). Stimulation and measurements were conducted as described for von Frey hair testing. A cutoff of 20 sec was set to prevent tissue damage.
# [4] = UVB permeation of paw-pad skin (sunscreen test); set-up: species or system mouse; conditions: topically applied; GSK205 5 mM
# Experimental: The UV LED was powered with 20 mA of current, resulting in 500 μW of optical power in a circular focal spot 1.5 mm in diameter, with 70% of the total flux in a 0.5 mm beam radius. The UV optical power transmitted through the sample was detected by a Hamamatsu 5127-66BR UV detector, and the output of the photodetector was measured using a Keithley 236 source measure unit. Next, the foot-pad epidermis of a mouse was measured for UV transmission by placing it on a quartz coverslip and exposure to the UV beam. The vehicle-control group was treated with the alcohol and glycerol solution only. Another control group consisted of a commercially-available SPF100 preparation sunscreen in form of a cream, which was applied similar to the vehicle-control. The data for the GSK205 and sunscreen was normalized to this control data.
SMILES,Ca2+ transience on TRPV1 stimulation (human TRPV1),Ca2+ transience on TRPV2 stimulation (human TRPV2),ET1 secretion into supernatant (relative ET1 concentration) (ET1 [1]),ET1 immunoreactivity (ET1 [2]),"delay in thermal sensitivity after UVB ([3]; 1 mM GSK205 topical, WT mice) [h]","thermally-evoked nocifensive behavior (Hargreaves' test) after UVB ([3]; 5 mM GSK205 topical, 60′ and 10′ pre-exposure, WT mice)","nocifensive behavior after UVB in Trpv4−/− mice vs. vehicle (off-target effects) ([3]; 5 mM GSK205 topical, Trpv4−/− mice)","sensitivity to von Frey hair mechanical stimulation after UVB ([3]; topical GSK205, WT mice)",UVB permeation of paw-pad skin vs. vehicle control [4]
CN(CCc1ccc(Nc2nc(-c3ccccc3)cs2)cc1)Cc1ccccc1 [Compound 16-8],not affected,not affected,–,–,–,–,–,–,–
CN(CCc1ccc(Nc2nc(-c3cccnc3)cs2)cc1)Cc1ccccc1 [GSK205],–,–,significant down-regulation,diminished; also recorded: significant down-regulation,~24,sustained attenuation of thermally-evoked nocifensive behavior; also recorded: significant attenuation of thermal allodynia,did not show any inter-group differences; also recorded: lack of off-target effects,significantly reduced sensitivity,equal UVB permeation; also recorded: absence of a change
